Measured values as given in ChEMBL document CHEMBL1127163, “Anilide tertiary carbinols: A new structural class of potent potassium channel openers” (Bioorg Med Chem Lett, 1993).

How the values were obtained:
[1] = species: Cavia porcellus; assay: The compound was tested for […] activity against guinea pig detrusor (bladder) strip mildly depolarized with 15 mM KCl; format: functional
[2] = species: Cavia porcellus; assay: The compound was tested for […] activity against guinea pig vascular tissue (portal vein) strip mildly depolarized with 15 mM KCl; format: functional
[3] = species: Cavia porcellus; assay: Tested for relaxant activity of compound with 80 mM KCl; format: functional
[4] = species: Cavia porcellus; assay: Tested for percent increase in efflux rate constant with 54.6 uM of compound using guinea pig detrusor; format: functional
[5] = Tested for dissociation constant of compound at PH of 7.4; format: ADME; settings: pH 7.4

Row | IC50 [1] | IC50 [2] | IC50 [3] | pKa [5] | SMILES | Increase [4]
1 | 1.6 µM |  | 260 µM |  | C[C@](O)(C(=O)Nc1ccc(S(=O)(=O)c2ccncc2)cc1)C(F)(F)F | 40%
2 | 0.07 µM | 0.003 µM |  | 7.5 | O=C(c1ccc(NC(=O)C(O)(C(F)F)C(F)F)cc1)c1ccccn1 | 
3 | > 30 µM |  |  |  | C[C@@](O)(C(=O)Nc1ccc(S(=O)(=O)c2ccncc2)cc1)C(F)(F)F | 

Continued, compound first:

Row | SMILES | IC50 [1] | IC50 [2] | IC50 [3] | pKa [5] | Increase [4]
4 | CC(O)(C(=O)Nc1ccc(S(=O)(=O)c2ccncc2)cc1)C(F)(F)F (racemic) | 3.8 µM |  |  |  | 
5 | CC1(C)Oc2ccc(C#N)cc2[C@H](N2CCCC2=O)[C@H]1O (single isomer, unassigned) [(-)-CROMAKALIM] | 0.57 µM | 0.02 µM |  |  | 
